# Experimental data: patent US20120087864A1, “METHOD FOR DIAGNOSING AND/OR EVALUATING RETINAL DISEASE” (R-TECH UENO, LTD., priority 2010, published 2012)
# “And” between values parts separate entries of the source, which are not always exact repeats. Equal values may be shown once. Marks after values point to notes of the source that are not given here.
# Columns and labels:
# Assay type in all cases: in vivo, human
# [1] = test system: patient with retinal pigmentosa; assay: Humphrey visual field test (SITA-Standard, central 10-2) retinal sensitivity (MD value), 24-week placebo-controlled clinical test; details: 0.15% solution twice a day; for change value of Humphrey central 10-2 retina sensitivity (MD value): change from before treatment
# Protocol: (§1) One drop or two drops of isopropyl unoprostone 0.15 w/v % ophthalmic solution per one time was administered to each eye of patient with retinal pigmentosa daily for 24 weeks, and the following items were examined. 112 patients participated this test.
# Change in retinal sensitivity through Humphrey visual field test (SITA-Standard, 10-2)
# The above ophthalmic solution of Formulation Example 1 was used as the test drug.
# (1) Dosage regimen: Instillation twice* a day, one drop of a first solution was instilled at the time of first instillation and, after 5 minute, one drop of a second solution was instilled into both eyes.
# Since subjective symptoms depend on one eye having better visual function than the other, when both eyes satisfy the all selection criteria, the eye having better desimal visual acuity was adopted as the eye for evaluation of efficacy. When both eyes have the same desimal visual acuity, right eye was adopted as the eye for evaluation of efficacy
# Between-group comparison of the average of Humphrey central 10-2 retina sensitivity (MD value) was made every measurement time point.
# Between-group comparison of the change value of Humphrey central 10-2 retina sensitivity (MD value) was made every measurement time point.
# [2] = test system: patient with retinal pigmentosa; assay: NEI VFQ-25 (Compo 8) vision-related QOL questionnaire; details: 0.15% solution twice a day, after 24 weeks minus 0 week
# Protocol: as §1
# Change in The 25-Item National Eye Institute Visual Function Questionnaire (NEI VFQ-25) Compo 8:
# Original NEI VFQ-25 (The 25-item National Eye Institute Visual Function Questionnaire) for evaluation of vision-related QOL of a patient is constituted from visual functions in various living scenes, and 12 subscales (questions of 25 items) for measurement of the degree of restrictions of vision-related physical, mental and social living scenes. In the present test, a questionnaire of Compo 8 constituted from 8 subscales with exception of general health, driving, peripheral vision and ocular pain among the subscales was used. At the time of completion of the pre-observation period (0 week) and completion of the treatment (24 weeks), a change value of score (the value after 24 weeks minus the value at 0 week) was evaluated.
# [3] = test system: patient with retinal pigmentosa; assay: MP-1 microperimeter retinal sensitivity of central 2 degrees (4 points); details: 0.15% solution twice a day; for average retinal sensitivity by MP-1 in central 2 degrees (4 points), change value: change from 0 week
# Protocol: as §1
# Using an combined equipment having a retinal camera and an automatic perimeter, retinal sensitivity of measurement points set preliminarily on the eyeground retina was automatically measured. The feature of MP-1 is that tracking can be automatically performed according to the eye movement, and retinal sensitivity of a local part of the eyeground can be accurately measured by correcting a gap detected during a test. Also, it is possible to serially measure retinal sensitivity at the same site of the eyeground since a test can be performed at the same measurement point of retina as that of the previous test.
# Change in retinal sensitivity of central 2 degrees (4 points) through MP-1 microperimeter
# The value of the average retinal sensitivity by MP-1 in central 2 degrees (4 points) changed from the value at the time of completion of the pre-observation period (0 week) at each measurement time point (time of hospital visiting of subject) was calculated in each eye.
# The retinal sensitivity by MP-1 central 2 degrees (4 points) was measured at a pre-observation period, after 4 weeks, after 8 weeks, after 16 weeks and after 24 weeks. It is estimated that variation (error) due to seasonal variation during measuring for 24 weeks may arise. For the purpose of absolutely evaluating the effect of the drug, in order to grasp an overview including negation of both improvement and aggravation, between-group comparison was made by adding up of a difference (change value) with the pre-observation period in four measurements.
# [4] = test system: patient with retinal pigmentosa; assay: Safety evaluation: side effects until completion of medication (24 weeks)
# Source text: Safety evaluation (1. Adverse event, 2. Side effect, 3. Ophthalmologic examination, Vital signs, Clinical examination result)
# A list of items of the side effect confirmed until completion of medication (24 weeks) in Test Example 1, and the number of appearance cases and the appearance ratio of the side effect of each group are shown in Table 10.
# [5] = test system: patient with retinal pigmentosa; assay: Intraocular pressure (IOP) over the 24-week measurement period; details: one drop and two drop groups
# [6] = one drop per time group, after 8 weeks
# [7] = one drop per time group, after 16 weeks
# [8] = one drop per time group, after 24 weeks
# [9] = two drops per time group, after 4 weeks
# [10] = two drops per time group, after 8 weeks
# [11] = two drops per time group, after 16 weeks
# [12] = two drops per time group, after 24 weeks
smiles,measurement,setting,value
"CCCCCCCC(=O)CC[C@@H]1[C@@H](C/C=C\CCCC(=O)OC(C)C)[C@@H](O)C[C@H]1O [isopropyl unoprostone, (+)-isopropyl (Z)-7-[(1R,2R,3R,5S)-3,5-dihydroxy-2-(3-oxodecyl)cyclopentyl]hept-5-enoate]",average of Humphrey central 10-2 retina sensitivity (MD value),"[1]; one drop per time group, 0 week (before treatment)",−14.116 dB
same,average of Humphrey central 10-2 retina sensitivity (MD value),"[1]; one drop per time group, after 4 weeks",−13.952 dB
same,average of Humphrey central 10-2 retina sensitivity (MD value),[1]; [6],−14.074 dB
same,change value of Humphrey central 10-2 retina sensitivity (MD value),[1]; [6],0.042 dB
same,average of Humphrey central 10-2 retina sensitivity (MD value),[1]; [7],−13.768 dB
same,change value of Humphrey central 10-2 retina sensitivity (MD value),[1]; [7],0.136 dB
same,average of Humphrey central 10-2 retina sensitivity (MD value),[1]; [8],−13.699 dB
same,change value of Humphrey central 10-2 retina sensitivity (MD value),[1]; [8],0.417 dB
same,average of Humphrey central 10-2 retina sensitivity (MD value),"[1]; two drops per time group, 0 week (before treatment)",−18.376 dB
same,average of Humphrey central 10-2 retina sensitivity (MD value),[1]; [9],−17.671† dB
same,change value of Humphrey central 10-2 retina sensitivity (MD value),[1]; [9],0.831 dB
same,average of Humphrey central 10-2 retina sensitivity (MD value),[1]; [10],−17.810 dB
same,change value of Humphrey central 10-2 retina sensitivity (MD value),[1]; [10],0.696* dB
same,average of Humphrey central 10-2 retina sensitivity (MD value),[1]; [11],−17.341† dB
same,change value of Humphrey central 10-2 retina sensitivity (MD value),[1]; [11],0.777 dB
same,average of Humphrey central 10-2 retina sensitivity (MD value),[1]; [12],−17.411† dB
same,change value of Humphrey central 10-2 retina sensitivity (MD value),[1]; [12],0.891 dB
same,"change value of VFQ-25 subscale ""vision-related social function""",[2]; one drop per time group,−2.3
same,change value of VFQ-25 summary score,[2]; one drop per time group,−1.1
same,"change value of VFQ-25 subscale ""vision-related social function""",[2]; two drops per time group,6.6*^†
same,change value of VFQ-25 summary score,[2]; two drops per time group,2.69^†
same,"MP-1 central 2 degrees (4 points) average retinal sensitivity: aggravation by 4 dB or more, number of cases (%)",[3]; [8],6 (15.8%) cases (%)
same,"MP-1 central 2 degrees (4 points) average retinal sensitivity: improvement by 4 dB or more, number of cases (%)",[3]; [8],3 (7.9%) cases (%)
same,"MP-1 central 2 degrees (4 points) average retinal sensitivity: no change, number of cases (%)",[3]; [8],29 (76.3%) cases (%)
same,"average retinal sensitivity by MP-1 in central 2 degrees (4 points), change value",[3]; [9],0.5 dB
same,"average retinal sensitivity by MP-1 in central 2 degrees (4 points), change value",[3]; [10],1.013 dB
same,"average retinal sensitivity by MP-1 in central 2 degrees (4 points), change value",[3]; [11],0.713 dB
same,"MP-1 central 2 degrees (4 points) average retinal sensitivity: aggravation by 4 dB or more, number of cases (%)",[3]; [12],1 (2.6%) cases (%) and 1 (2.9%)* cases (%)
same,"MP-1 central 2 degrees (4 points) average retinal sensitivity: improvement by 4 dB or more, number of cases (%)",[3]; [12],6 (17.1%) cases (%)
same,"MP-1 central 2 degrees (4 points) average retinal sensitivity: no change, number of cases (%)",[3]; [12],28 (80.0%) cases (%)
same,"average retinal sensitivity by MP-1 in central 2 degrees (4 points), change value",[3]; [12],1.1^† dB
same,"average retinal sensitivity by MP-1 in central 2 degrees (4 points), comparison of change value","[3]; two drops per time group, change values of four measurements (4, 8, 16, 24 weeks) added up",0.826* dB
same,serious side effect,[4]; any group (one drop and two drops per time),no serious side effect
same,"All side effects, number of appearance cases",[4]; one drop per time (39 cases),28 (71.8%) cases (%) and 28 (71.8) cases (%)
same,"Bloodshot eyes, number of appearance cases",[4]; one drop per time (39 cases),1 (2.6) cases (%)
same,"Bloodshot, number of appearance cases",[4]; one drop per time (39 cases),0 (0.0) cases (%)
same,"Dry eye, number of appearance cases",[4]; one drop per time (39 cases),1 (2.6) cases (%)
same,"Eye abnormality, number of appearance cases",[4]; one drop per time (39 cases),0 (0.0) cases (%)
same,"Eye irritation, number of appearance cases",[4]; one drop per time (39 cases),9 (23.1) cases (%)
same,"Eye pruritus, number of appearance cases",[4]; one drop per time (39 cases),1 (2.6) cases (%)
same,"Eye swelling, number of appearance cases",[4]; one drop per time (39 cases),1 (2.6) cases (%)
same,"Foreign body sensation, number of appearance cases",[4]; one drop per time (39 cases),1 (2.6) cases (%)
same,"Hypertrichosis, number of appearance cases",[4]; one drop per time (39 cases),0 (0.0) cases (%)
same,"Irritation of applied site, number of appearance cases",[4]; one drop per time (39 cases),13 (33.3) cases (%)
same,"Macular edema, number of appearance cases",[4]; one drop per time (39 cases),1 (2.6) cases (%)
same,"Macular hole, number of appearance cases",[4]; one drop per time (39 cases),0 (0.0) cases (%)
same,"Punctate keratitis, number of appearance cases",[4]; one drop per time (39 cases),4 (10.3) cases (%)
same,"All side effects, number of appearance cases",[4]; two drops per time (38 cases),21 (55.3%) cases (%) and 21 (55.3) cases (%)
same,"Bloodshot eyes, number of appearance cases",[4]; two drops per time (38 cases),0 (0.0) cases (%)
same,"Bloodshot, number of appearance cases",[4]; two drops per time (38 cases),1 (2.6) cases (%)
same,"Dry eye, number of appearance cases",[4]; two drops per time (38 cases),0 (0.0) cases (%)
same,"Eye abnormality, number of appearance cases",[4]; two drops per time (38 cases),1 (2.6) cases (%)
same,"Eye irritation, number of appearance cases",[4]; two drops per time (38 cases),4 (10.5) cases (%)
same,"Eye pruritus, number of appearance cases",[4]; two drops per time (38 cases),1 (2.6) cases (%)
same,"Eye swelling, number of appearance cases",[4]; two drops per time (38 cases),0 (0.0) cases (%)
same,"Foreign body sensation, number of appearance cases",[4]; two drops per time (38 cases),0 (0.0) cases (%)
same,"Hypertrichosis, number of appearance cases",[4]; two drops per time (38 cases),1 (2.6) cases (%)
same,"Irritation of applied site, number of appearance cases",[4]; two drops per time (38 cases),13 (34.2) cases (%)
same,"Macular edema, number of appearance cases",[4]; two drops per time (38 cases),0 (0.0) cases (%)
same,"Macular hole, number of appearance cases",[4]; two drops per time (38 cases),0 (0.0) cases (%)
same,"Punctate keratitis, number of appearance cases",[4]; two drops per time (38 cases),4 (10.5) cases (%)
same,decrease of intraocular pressure (IOP) as compared to the placebo,[5],greater decrease in IOP
